Results taken from ChEMBL document CHEMBL1201862, “PubChem BioAssay data set” (2004).
Active and inactive are the calls of the source.

Columns and labels:
Aminopeptidase N = biological target: T1, Aminopeptidase N (Plasmodium falciparum FcB1/Columbia, UniProt O96935); test: P. falciparum M1AAP inhibitors, biochemical, fluorogenic H-Leu-NHMec substrate, 1536-well (AID 1445); design: species or system Plasmodium falciparum 3D7, 3D7
T1 sequence (O96935 whole entry): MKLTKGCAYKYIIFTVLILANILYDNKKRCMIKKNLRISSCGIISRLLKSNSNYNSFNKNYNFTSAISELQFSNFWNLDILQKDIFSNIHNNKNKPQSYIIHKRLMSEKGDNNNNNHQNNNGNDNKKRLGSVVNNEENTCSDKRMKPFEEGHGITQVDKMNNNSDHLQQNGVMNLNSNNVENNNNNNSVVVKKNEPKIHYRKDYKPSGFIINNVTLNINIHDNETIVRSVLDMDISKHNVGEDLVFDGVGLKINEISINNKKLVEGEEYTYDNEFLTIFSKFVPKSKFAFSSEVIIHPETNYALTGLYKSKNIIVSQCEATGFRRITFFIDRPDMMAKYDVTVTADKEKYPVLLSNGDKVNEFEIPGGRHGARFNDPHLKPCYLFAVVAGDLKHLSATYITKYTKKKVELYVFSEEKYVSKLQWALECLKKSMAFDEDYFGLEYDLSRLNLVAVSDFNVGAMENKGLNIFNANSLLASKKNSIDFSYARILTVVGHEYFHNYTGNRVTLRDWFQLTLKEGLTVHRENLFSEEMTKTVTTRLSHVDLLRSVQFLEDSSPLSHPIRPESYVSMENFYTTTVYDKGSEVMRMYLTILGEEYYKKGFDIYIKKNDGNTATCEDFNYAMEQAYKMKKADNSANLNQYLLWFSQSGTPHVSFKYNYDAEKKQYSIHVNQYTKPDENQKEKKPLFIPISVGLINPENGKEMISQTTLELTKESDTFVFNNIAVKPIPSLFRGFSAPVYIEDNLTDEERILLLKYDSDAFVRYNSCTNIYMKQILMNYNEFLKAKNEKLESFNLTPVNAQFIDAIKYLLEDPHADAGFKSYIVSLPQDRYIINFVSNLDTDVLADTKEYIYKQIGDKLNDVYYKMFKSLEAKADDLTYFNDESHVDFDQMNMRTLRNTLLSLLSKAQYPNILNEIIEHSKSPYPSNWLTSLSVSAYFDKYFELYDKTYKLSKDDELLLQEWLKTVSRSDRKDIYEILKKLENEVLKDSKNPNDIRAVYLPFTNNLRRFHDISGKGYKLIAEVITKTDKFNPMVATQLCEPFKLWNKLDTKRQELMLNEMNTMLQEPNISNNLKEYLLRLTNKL

Mu-type opioid receptor = Mu-type opioid receptor (Homo sapiens, UniProt P35372); test: (§1) Counterscreen for agonists of heterodimerization of the mu 1 (OPRM1) and delta 1 (OPRD1) opioid receptors: Luminescence-based cell-based high throughput dose response assay to identify agonists of OPRM1 homodimerization.; format: functional
[1] = biological target: Delta-type opioid receptor (Homo sapiens, UniProt P41143); test: as §1, with “of OPRD1” for “of OPRM1”, “homodimerization. [Related pubchem assays (depositor defined):AID504326, AID504355, AID504692, AID504904, AID504905]” for “homodimerization.”; format: functional
[2] = biological target: 5-hydroxytryptamine receptor 5A (Homo sapiens, UniProt P47898); test: Counterscreen for agonists of OPRM1-OPRD1 heterodimerization: luminescence-based cell-based high throughput dose response assay to identify agonists of 5-hydroxytryptamine (serotonin) 5A receptor (HTR5A). [Related pubchem assays (depositor defined):AID504326, AID504355, AID504692, AID504904, AID504905]; format: functional
[3] = biological target: T2, DNA repair protein RAD52 homolog (Homo sapiens, UniProt P43351); format: functional, biochemical
T2 sequence (P43351 whole entry): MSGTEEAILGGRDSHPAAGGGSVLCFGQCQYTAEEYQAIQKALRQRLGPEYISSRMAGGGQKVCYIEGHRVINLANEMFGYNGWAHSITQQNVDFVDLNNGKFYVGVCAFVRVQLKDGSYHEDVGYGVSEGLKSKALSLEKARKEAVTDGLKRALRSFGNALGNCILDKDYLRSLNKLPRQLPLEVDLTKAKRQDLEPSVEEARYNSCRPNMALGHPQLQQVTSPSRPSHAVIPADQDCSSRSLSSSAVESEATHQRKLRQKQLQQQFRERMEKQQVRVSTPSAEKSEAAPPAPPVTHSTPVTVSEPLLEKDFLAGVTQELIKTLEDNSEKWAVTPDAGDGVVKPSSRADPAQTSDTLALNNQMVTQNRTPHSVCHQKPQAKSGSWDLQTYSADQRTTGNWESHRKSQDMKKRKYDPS

Galanin receptor type 2 = Galanin receptor type 2 (Homo sapiens, UniProt O43603); test: Dose Response cell-based high-throughput screening assay to identify agonists of galanin receptor 2 (GALR2). [Related pubchem assays: 864 ]; format: functional
Vero [4] = test: cells; format: functional; conditions: Chlorocebus sabaeus
[5] = biological target: T3, Short transient receptor potential channel 4 (Mus musculus, UniProt Q9QUQ5); test: mouse TRPC4 channel activators, dose response, cell-based, HEK293 TRPC4/mu-opioid, Fluo-4 calcium (AID 434937); format: functional
T3 sequence (Q9QUQ5 whole entry): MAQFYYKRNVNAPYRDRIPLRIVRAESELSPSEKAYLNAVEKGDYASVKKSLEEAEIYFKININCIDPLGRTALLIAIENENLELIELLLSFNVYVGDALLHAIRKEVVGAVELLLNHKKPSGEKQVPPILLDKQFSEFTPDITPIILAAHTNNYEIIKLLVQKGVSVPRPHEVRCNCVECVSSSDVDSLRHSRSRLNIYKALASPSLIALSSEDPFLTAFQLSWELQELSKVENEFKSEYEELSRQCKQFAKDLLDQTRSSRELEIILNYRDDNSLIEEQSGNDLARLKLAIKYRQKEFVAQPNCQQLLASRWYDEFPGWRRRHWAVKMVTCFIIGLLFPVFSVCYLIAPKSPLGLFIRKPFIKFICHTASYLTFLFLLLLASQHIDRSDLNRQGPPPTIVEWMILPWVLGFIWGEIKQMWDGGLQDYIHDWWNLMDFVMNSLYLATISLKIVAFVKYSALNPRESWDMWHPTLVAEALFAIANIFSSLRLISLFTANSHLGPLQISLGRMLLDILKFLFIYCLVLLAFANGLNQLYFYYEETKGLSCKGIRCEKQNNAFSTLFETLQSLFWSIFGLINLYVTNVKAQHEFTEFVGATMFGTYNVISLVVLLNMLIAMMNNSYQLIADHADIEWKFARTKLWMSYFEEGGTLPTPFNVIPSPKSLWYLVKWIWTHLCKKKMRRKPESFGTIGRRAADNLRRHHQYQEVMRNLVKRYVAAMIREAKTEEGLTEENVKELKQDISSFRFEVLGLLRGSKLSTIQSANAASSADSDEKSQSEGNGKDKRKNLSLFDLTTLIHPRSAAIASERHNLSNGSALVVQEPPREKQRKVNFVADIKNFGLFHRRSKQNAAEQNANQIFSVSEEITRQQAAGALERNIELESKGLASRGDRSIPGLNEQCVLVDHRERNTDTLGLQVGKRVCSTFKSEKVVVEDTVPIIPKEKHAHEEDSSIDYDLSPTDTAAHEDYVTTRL

Ephrin type-A receptor 4 = Ephrin type-A receptor 4 (Mus musculus, UniProt Q03137); test: inhibitors of EphA4 binding to KYL peptide, primary screen, biochemical, colorimetric, mouse EphA4 (AID 689); format: functional
[6] = inhibitors of intracellular T. cruzi replication, confirmation, NIH3T3 host cells, beta-gal luminescence (AID 2044); format: functional, cell-based;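 also: intracellular parasites grown in NIH/3T3 mouse fibroblasts as host cells; luminescent beta-galactosidase reporter signal from transgenic T. cruzi replicating inside host cells; inhibitors lower the luminescence signal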
[7] = growth suppression of beta-catenin-knockout colon cells, dose response, cell-based, HCT116, human colon tumor (AID 1045); format: functional;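 also: HCT116 colon tumor cells with beta catenin knocked out; cells exposed to compound for 60 hours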
HEK293 = test: inhibitors of LMP1-driven NF-kB reporter, dose response, cell-based, HEK293, luciferase, cherry-pick (AID 588343); format: functional; conditions: Homo sapiens
Vero [8] = test: host cell cytotoxicity of antiviral hits, dose response, cytotoxicity control for West Nile virus antiviral project, secondary assay (AID 1650); format: functional; conditions: Chlorocebus sabaeus
INS1 = test: beta cell apoptosis inhibitors, cytokine rescue, dose response, luminescence, retest (AID 449756); format: functional, cell-based; conditions: Rattus norvegicus;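 also: cell death triggered by IL-1 beta plus TNF-alpha plus IFN-gamma mixture; protective hits raise ATP signal compared with cytokine alone wells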
Paired box protein Pax-8 = Paired box protein Pax-8 (Homo sapiens, UniProt Q06710); test: inhibitors of PAX8-driven TPO luciferase reporter, dose response, RMG-I cells, cherry-pick (AID 687027); format: functional, cell-based;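 also: luciferase reporter driven by Pax8 target thyroperoxidase promoter measured by SteadyGlo luminescence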
[9] = growth suppression of PTEN-null colon cells, dose response, cell-based, HCT116 PTEN knockout (AID 1047); format: functional;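 also: HCT116 colon tumor cells with PTEN knocked out; cells exposed to compound for 60 hours before readout; potency for loss of cell viability measured by luminescence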
[10] = non-specific cell cytotoxicity, dose response, cytotoxicity control for PAX8 inhibitor project, plate reader, dry powder samples (AID 743021); format: functional, cell-based
[11] = cytotoxicity toward NIH3T3 fibroblasts, dose response, counter-screen, cell-based, ATP luminescence, mouse fibroblasts (AID 2010); format: functional;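 also: cells exposed to compound for about 90 hours before reading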
cells [12] = format: functional, cell-based
cells [13] = format: functional, cell-based; remark: listed apart in the source
[14] = Fluorescence-based cell-based high throughput dose response assay for inhibitors of the interaction of nucleotide-binding oligomerization domain containing 2 (NOD2) and the receptor-interacting serine-threonine kinase 2 (RIPK2).; format: functional; conditions: Homo sapiens
BJ [15] = test: cells; format: functional, cell-based; conditions: Homo sapiens
[16] = cytotoxicity toward DRD oncogenic fibroblasts, dose response, cell-based, non-viral oncogenic, luminescence (AID 1934); format: functional; conditions: Homo sapiens
Hexokinase HKDC1 = biological target: T4, Hexokinase HKDC1 (Homo sapiens, UniProt Q2TB90); test: HKDC1 hexokinase inhibitors, dose response, biochemical, W721R variant (AID 504729); format: functional
T4 sequence (Q2TB90 whole entry): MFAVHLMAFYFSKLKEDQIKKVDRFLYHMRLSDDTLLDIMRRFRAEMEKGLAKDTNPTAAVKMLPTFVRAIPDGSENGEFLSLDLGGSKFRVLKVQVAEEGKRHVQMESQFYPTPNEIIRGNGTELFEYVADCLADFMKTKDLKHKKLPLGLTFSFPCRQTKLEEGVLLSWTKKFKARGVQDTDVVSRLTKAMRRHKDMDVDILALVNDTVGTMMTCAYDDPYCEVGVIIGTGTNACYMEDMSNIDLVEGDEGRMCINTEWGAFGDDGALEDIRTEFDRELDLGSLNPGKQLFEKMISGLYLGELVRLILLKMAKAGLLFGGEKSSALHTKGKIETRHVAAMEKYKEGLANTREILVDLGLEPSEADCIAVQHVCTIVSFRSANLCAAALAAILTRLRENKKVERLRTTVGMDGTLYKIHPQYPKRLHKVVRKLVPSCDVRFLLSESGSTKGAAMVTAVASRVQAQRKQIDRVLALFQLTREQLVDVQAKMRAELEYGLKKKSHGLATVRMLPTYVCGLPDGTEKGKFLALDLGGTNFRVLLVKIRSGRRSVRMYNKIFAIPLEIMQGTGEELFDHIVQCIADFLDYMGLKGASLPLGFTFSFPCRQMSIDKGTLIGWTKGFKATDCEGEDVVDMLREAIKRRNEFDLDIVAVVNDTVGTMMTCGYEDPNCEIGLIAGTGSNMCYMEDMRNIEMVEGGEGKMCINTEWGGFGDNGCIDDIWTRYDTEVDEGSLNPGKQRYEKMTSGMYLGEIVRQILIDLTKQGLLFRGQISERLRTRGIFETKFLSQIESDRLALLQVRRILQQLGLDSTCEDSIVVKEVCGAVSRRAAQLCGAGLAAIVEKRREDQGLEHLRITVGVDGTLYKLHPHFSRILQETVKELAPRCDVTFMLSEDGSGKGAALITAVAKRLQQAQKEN

BJ [17] = test: cytotoxicity toward BJ-TERT fibroblasts, dose response, cell-based, RAS-independent, luminescence (AID 1933); format: functional; conditions: Homo sapiens
[18] = Luminescent dose response cell-based high throughput screening assay for inhibitors of the Janus kinase 2 mutant JAK2V617F. [Related pubchem assays: 1446 (Primary screen.), 1521 (Confirmation assay.), 1486 (Counter screen.)]; format: functional
BJ [19] = test: cytotoxicity toward BJ-TERT-LT-ST fibroblasts, dose response, cell-based, RAS-independent, luminescence (AID 1935); format: functional; conditions: Homo sapiens;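 also: BJ fibroblasts immortalized with TERT plus LT and ST oncogenes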
[20] = biological target: Protein-tyrosine kinase 2-beta (Homo sapiens, UniProt Q14289);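 also: potency of inhibitors of PYK2 kinase phosphorylation of poly-GT substrate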
Chain of Protein-tyrosine kinase 2-beta (Q14289 whole entry): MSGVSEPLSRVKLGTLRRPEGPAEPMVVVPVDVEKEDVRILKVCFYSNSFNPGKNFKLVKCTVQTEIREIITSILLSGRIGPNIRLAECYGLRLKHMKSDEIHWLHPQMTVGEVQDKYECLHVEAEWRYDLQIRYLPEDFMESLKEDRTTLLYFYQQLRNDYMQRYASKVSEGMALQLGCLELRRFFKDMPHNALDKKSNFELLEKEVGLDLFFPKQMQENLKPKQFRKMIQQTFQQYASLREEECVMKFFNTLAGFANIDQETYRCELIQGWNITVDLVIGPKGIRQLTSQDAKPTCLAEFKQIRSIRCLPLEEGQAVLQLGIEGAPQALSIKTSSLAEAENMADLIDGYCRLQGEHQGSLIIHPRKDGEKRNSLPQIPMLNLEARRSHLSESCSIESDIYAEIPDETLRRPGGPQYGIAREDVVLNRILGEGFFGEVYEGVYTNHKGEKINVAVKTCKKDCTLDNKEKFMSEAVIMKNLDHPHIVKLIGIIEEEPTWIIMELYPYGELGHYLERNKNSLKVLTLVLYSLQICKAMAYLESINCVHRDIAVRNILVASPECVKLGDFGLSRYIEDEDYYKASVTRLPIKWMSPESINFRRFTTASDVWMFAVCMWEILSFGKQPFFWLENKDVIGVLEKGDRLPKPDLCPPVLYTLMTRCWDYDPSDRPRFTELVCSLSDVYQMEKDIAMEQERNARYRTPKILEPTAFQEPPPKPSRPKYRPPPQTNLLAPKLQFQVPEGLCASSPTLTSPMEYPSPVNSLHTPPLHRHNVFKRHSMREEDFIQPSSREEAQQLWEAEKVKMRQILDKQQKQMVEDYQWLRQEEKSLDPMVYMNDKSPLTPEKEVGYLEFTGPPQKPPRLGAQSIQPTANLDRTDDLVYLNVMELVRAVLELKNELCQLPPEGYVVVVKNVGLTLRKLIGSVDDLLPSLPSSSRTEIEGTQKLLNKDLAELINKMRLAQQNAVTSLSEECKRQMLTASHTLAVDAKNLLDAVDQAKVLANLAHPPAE

Chain of Delta-type opioid receptor (P41143 whole entry): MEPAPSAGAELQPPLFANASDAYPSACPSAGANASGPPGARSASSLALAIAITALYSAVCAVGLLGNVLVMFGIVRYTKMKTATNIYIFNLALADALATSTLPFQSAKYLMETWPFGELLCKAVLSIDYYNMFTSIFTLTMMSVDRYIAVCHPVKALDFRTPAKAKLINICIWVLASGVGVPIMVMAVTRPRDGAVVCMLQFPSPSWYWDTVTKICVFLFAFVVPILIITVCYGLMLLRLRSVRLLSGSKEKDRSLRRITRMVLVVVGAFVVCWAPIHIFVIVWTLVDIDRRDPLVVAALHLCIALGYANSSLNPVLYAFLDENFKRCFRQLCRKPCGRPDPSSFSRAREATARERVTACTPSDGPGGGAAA
Chain of 5-hydroxytryptamine receptor 5A (P47898 whole entry): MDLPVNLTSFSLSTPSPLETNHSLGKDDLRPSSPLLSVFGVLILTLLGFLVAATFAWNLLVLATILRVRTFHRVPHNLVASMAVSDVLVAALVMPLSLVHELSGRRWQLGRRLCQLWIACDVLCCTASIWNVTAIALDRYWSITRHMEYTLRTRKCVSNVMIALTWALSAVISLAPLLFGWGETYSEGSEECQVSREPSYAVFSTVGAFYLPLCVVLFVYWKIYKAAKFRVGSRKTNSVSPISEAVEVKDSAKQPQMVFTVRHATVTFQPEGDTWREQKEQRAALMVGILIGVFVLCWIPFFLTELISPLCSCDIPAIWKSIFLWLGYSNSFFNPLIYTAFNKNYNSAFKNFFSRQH
Chain of Galanin receptor type 2 (O43603 whole entry): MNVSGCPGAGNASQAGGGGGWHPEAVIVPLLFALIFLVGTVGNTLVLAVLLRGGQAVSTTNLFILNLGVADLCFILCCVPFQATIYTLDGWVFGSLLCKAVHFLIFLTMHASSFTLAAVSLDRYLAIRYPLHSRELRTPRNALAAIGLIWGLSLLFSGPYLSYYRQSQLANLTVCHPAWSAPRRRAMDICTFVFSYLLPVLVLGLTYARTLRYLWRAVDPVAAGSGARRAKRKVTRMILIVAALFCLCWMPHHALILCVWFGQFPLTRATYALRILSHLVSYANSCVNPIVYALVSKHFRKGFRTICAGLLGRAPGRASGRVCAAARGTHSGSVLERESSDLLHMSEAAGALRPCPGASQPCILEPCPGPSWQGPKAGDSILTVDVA
Chain of Mu-type opioid receptor (P35372 whole entry): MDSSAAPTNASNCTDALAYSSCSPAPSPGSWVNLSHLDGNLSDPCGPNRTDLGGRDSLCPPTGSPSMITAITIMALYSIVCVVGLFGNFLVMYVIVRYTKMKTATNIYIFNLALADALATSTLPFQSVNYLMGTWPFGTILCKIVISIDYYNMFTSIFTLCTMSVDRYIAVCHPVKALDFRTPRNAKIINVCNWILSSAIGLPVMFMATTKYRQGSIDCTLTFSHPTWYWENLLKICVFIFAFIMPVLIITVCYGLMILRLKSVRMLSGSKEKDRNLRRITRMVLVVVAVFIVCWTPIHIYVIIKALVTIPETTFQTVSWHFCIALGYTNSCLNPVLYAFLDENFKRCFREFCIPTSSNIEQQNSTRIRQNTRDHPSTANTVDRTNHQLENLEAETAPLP
Chain of Ephrin type-A receptor 4 (Q03137 whole entry): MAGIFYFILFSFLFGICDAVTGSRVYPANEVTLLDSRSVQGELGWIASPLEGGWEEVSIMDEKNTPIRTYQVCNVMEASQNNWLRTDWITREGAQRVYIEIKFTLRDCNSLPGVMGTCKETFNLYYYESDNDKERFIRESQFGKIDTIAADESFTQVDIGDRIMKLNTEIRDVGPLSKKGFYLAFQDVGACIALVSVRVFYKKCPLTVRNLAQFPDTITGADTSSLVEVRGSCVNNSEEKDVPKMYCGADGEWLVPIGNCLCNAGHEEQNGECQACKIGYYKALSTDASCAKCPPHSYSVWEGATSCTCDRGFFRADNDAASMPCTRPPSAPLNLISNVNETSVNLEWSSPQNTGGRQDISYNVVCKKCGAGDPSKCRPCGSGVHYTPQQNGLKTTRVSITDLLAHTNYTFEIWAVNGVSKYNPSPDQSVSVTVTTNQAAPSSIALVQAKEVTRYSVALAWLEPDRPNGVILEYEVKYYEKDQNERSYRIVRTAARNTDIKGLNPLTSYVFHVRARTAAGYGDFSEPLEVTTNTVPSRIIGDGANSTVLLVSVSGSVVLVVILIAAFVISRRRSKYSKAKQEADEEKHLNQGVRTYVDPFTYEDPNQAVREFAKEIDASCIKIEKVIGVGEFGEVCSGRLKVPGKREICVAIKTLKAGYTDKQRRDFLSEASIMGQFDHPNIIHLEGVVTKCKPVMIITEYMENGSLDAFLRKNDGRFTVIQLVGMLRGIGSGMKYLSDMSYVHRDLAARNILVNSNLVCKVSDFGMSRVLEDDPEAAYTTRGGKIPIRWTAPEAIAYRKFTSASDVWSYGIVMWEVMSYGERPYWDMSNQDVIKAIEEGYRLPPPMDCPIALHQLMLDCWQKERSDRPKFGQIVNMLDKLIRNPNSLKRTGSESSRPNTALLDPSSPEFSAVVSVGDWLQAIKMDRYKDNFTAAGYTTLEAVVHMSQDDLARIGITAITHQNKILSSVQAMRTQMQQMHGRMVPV
Chain of Paired box protein Pax-8 (Q06710 whole entry): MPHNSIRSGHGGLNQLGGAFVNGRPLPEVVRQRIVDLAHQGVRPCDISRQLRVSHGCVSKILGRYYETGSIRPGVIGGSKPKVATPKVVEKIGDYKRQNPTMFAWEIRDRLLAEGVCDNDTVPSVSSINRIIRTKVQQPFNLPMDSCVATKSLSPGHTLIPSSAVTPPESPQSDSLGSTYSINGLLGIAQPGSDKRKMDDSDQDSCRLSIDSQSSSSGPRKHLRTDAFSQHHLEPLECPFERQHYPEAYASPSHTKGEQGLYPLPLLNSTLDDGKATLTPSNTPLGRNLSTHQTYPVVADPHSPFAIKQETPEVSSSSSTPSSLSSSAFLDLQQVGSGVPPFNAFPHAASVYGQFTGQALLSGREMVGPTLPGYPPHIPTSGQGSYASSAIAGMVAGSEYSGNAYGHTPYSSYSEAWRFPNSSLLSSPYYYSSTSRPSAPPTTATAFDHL

With `COc1cc2c3cc1Oc1cc(ccc1O)C[C@@H]1c4c(cc(OC)c(O)c4Oc4ccc(cc4)C[C@H]3N(C)CC2)CCN1C` the IC50 (Aminopeptidase N) was 15.2 µM (active), the EC50 (Mu-type opioid receptor) was > 92.4 µM (inactive) and the EC50 [1] was 44.2 µM (inactive). The EC50 [2] was 79.2 µM (inactive), the AC50 [3] was 35.2 µM (active) and the EC50 (Galanin receptor type 2) was > 55.7 µM (not active). The CC50 (Vero [4]) was 24.6 µM (active) and the EC50 [5] was 1.33 µM (active).
With `Cc1ccc(C2=N/C(=C\c3cccs3)C(=O)N2Nc2ccccc2)cc1` the IC50 (Ephrin type-A receptor 4) was 2.91 µM (active).
In the case of `CCN(CC)S(=O)(=O)c1cc([N+](=O)[O-])ccc1NNC(=O)Nc1ccc(Cl)c(Cl)c1`, the EC50 [6] is reported as 2.03 µM (active), the EC50 [7] is reported as 7.99 µM (active) and the AC50 (HEK293) is reported as 22.9 µM (active). The CC50 (Vero [8]) was 14.3 µM (active), the AC50 (INS1) was 6.79 µM (active) and the AC50 (Paired box protein Pax-8) was 8.91 µM (active). The EC50 [9] was 8.3 µM (active), the AC50 [10] was 3.73 µM (active) and the EC50 [11] was > 60 µM (not active).
In the case of `Cc1nc([N+](=O)[O-])c(Br)n1Cc1ccc(Cl)c(Cl)c1`, the EC50 (cells [12]) is reported as > 350 µM (not active), the EC50 (cells [13]) is reported as > 350 µM (not active) and the IC50 [14] is reported as 4.39 µM (active). For the same compound, the EC50 (BJ [15]) was > 150 µM (not active), the EC50 [16] was 9.66 µM (inconclusive) and the IC50 (Hexokinase HKDC1) was 22.8 µM (inactive). For the same compound, the EC50 (BJ [17]) was 9.74 µM (inconclusive), the IC50 [18] was 0.542 µM (active) and the CC50 (Vero [4]) was 17.5 µM (active). For the same compound, the EC50 (BJ [19]) was > 150 µM (inconclusive).
For `Cc1n[nH]c(NC=C2C(=O)CC(C)(C)CC2=O)c1-c1ccccc1`, the IC50 [20] was 21 µM (not active).
